Measurements published in patent US7452997B2 (priority 2004, dated 2008).
Like-named read-outs stand apart in the source and are kept apart here.

Tests used:
[1] = target: T1, human CB1 receptor (Homo sapiens, UniProt P21554); test: Functional cell-based assay, CB1 receptor mediated change in CRE β-gal expression (agonist / inverse agonist)
T1 construct: expressed in transfected cells; host or cells: SK-N-MC cells, stably transfected with pcDNA3 CB-1 (human); semi-purified membrane pellet
From the text: (§1) Functional Cell-Based Assay for CB1 or CB2 Agonist and Inverse Agonist Effects on Intra-Cellular Adenylate Cyclase Activity
(§2) The CB1 and CB2 receptors are G-protein coupled receptors (GPCR) which influence cell function via the Gi-protein. These receptors modulate the activity of intracellular adenylate cyclase which in turn produces the intracellular signal messenger cyclic-AMP (cAMP).
(§3) At baseline, or during non-ligand bound conditions, these receptors are constitutively active and tonically suppress adenylate cyclase activity. The binding of an agonists causes further receptor activation and produces additional suppression of adenylate cyclase activity. The binding of an inverse agonist inhibits the constitutive activity of the receptors and results in an increase in adenylate cyclase activity.
(§4) By monitoring intracellular adenylate cyclase activity, the ability of compounds to act as agonists or inverse agonists can be determined.
(§5) Test compounds were evaluated in SK-N-MC cells which, using standard transfection procedures, were stably transfected with human cDNA for pcDNA3-CRE β-gal and pcDNA3 CB1 receptor (human) or pcDNA3 CB2 receptor (human). By expressing CRE β-gal, the cells produced β-galactosidase in response to CRE promoter activation by cAMP. Cells expressing CRE β-gal and either the human CB1 or CB2 receptor will produce less β-galactosidase when treated with a CB1/CB2 agonist and will produce more β-galactosidase when treated with a CB1/CB2 inverse agonist.
(§6) The cells were grown in 96-well plates under standard cell culture conditions at 37° C. in a 5% CO2 atmosphere. After 3 days, the media was removed and a test compound in media (wherein the media was supplemented with 2 mM L-glutamine, […] sodium pyruvate, 0.1% low fatty acid FBS (fetal bovine serum) and antibiotics) was added to the cell. The plates were incubated for 30 minutes at 37° C. and the plate cells were then treated with forskolin over a 4-6 hour period, then washed and lysed. The β-galactosidase activity was quantitated using commercially available kit reagents (Promega Corp. Madison, Wis.) and a VMAX Plate Reader (Molecular Devices, Inc).
(§7) The change in β-galactosidase activity was determined by setting a vehicle treated cell's activity value at 100% and expressing the β-galactosidase activity measured in a corresponding compound treated cell as a percent of the vehicle treated cell activity.
(§8) The EC50 values for compounds tested were calculated by linear regression and were obtained from studies in which varying compound concentrations were used.

[2] = target: T1, human CB1 receptor; test: biochemical; format: binding
Outline: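 Radioligand binding was run at 30° C for 90 minutes, pH 7.5 Tris buffer containing 0.5 mg/mL fatty acid free BSA, on semi-purified membranes of stably transfected SK-N-MC cells. Filter-bound radioactivity was scintillation counted, with IC50 obtained by linear regression across compound concentrations.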

[3] = target: T2, human CB2 receptor (Homo sapiens, UniProt P34972); test: Binding assay, cannabinoid CB2 receptor ([3H]-CP-55,940 displacement); conditions: Cannabinoid CB2 Receptor Binding IC50, human CB2 receptor, SK-N-MC cell membranes, radioligand CP-55,940 0.2 nM
T2 sequence (P34972 whole entry): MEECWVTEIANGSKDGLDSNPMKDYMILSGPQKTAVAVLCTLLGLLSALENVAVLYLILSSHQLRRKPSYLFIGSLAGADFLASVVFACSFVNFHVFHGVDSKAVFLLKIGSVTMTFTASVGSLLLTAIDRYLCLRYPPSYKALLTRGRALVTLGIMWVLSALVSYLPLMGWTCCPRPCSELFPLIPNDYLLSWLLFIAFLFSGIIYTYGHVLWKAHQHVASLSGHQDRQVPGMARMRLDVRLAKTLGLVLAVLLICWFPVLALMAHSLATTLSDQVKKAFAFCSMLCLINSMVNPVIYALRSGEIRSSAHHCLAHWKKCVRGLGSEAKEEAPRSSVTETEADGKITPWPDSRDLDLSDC
Outline: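 Displacement of [3H]-CP-55,940 (0.2 nM) was measured over 90 min at 30 °C (pH 7.5 Tris/MgCl2/EDTA buffer with BSA), using semi-purified membranes of human CB2-transfected SK-N-MC cells. Bound counts collected on GF/C filters, 10 uM WIN 55,212 as nonspecific control; IC50 from varied concentrations.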

[4] = target: T2, human CB2 receptor; test: Functional cell-based assay, CB2 receptor mediated change in CRE β-gal expression (agonist / inverse agonist); conditions: SK-N-MC cells, forskolin
From the text: as §1, §2, §3, §4, §5, §6
For cells expressing CRE β-gal and the CB2 receptor, CB2 agonists reduced β-galactosidase activity in a dose-dependent manner and CB2 inverse agonists increased β-galactosidase activity in a dose-dependent manner.
as §7, §8

[5] = inverse agonist, read-out: CB2 Receptor Functional Inverse Agonist EC50
[6] = agonist, read-out: CB2 Receptor Functional Agonist EC50

T1 sequence (P21554 whole entry): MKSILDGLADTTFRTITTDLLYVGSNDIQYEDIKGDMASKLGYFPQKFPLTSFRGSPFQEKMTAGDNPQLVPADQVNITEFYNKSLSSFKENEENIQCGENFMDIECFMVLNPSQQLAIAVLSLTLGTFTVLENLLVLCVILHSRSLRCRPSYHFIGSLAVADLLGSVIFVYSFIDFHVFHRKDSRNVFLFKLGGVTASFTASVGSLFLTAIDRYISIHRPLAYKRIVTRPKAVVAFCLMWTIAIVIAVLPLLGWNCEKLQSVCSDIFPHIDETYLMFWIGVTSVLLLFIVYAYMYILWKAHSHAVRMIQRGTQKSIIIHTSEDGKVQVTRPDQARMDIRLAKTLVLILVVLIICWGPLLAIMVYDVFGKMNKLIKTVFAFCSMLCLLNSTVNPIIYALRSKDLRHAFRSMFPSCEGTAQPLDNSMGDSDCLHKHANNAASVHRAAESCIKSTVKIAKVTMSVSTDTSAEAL

Row | SMILES | EC50 [1] [nM] | IC50 [2] [nM] | IC50 [3] [nM] | EC50 [4, 5] [nM] | EC50 [4, 6] [nM] | EC50 ([1]; SK-N-MC cells, CRE β-gal, human CB1 receptor, forskolin, inverse agonist, read-out: CB1 Receptor Functional Inverse Agonist EC50) [nM]
1 | CC(NS(=O)(=O)C=Cc1nn(-c2ccc(F)cc2)c2c1CCCC2CCc1ccccc1)c1ccccc1 (stereo not shown) [Cpd 258, 2-[1-(4-fluoro-phenyl)-7-phenethyl-4,5,6,7-tetrahydro-1H-indazol-3-yl]-ethenesulfonic acid (1-phenyl-ethyl)-amide] | 480 |  |  |  |  | 
2 | O=C(NCc1ccccn1)c1nn(-c2ccc(Cl)cc2Cl)c2c1CCCC2=Cc1ccc(Cl)cc1 [compound 319] | 50 |  |  |  |  | 
3 | COC(=O)[C@@H]1CCc2c(c(C(=O)NC3C4CC5CC(C4)CC3C5)nn2C2CCCCC2)C1 (stereo partly shown) [compound 219] |  | 100 | 4 | 320 |  | 
4 | O=C(NCC12CC3CC(CC(C3)C1)C2)c1nn(C2CCCCC2)c2c1CCCC2 [compound 32] |  | 20 | 6.9 |  | 47 | 
5 | C[C@@H](NC(=O)c1nn(-c2ccc(Cl)cc2Cl)c2c1CCC/C2=C\c1ccc(Cl)cc1)c1ccccc1 [compound 307] | 100 |  |  |  |  | 
6 | CCOC(=O)[C@H]1CCc2c(c(C(=O)NC3C4CC5CC(C4)CC3C5)nn2C2CCCCC2)C1 (stereo partly drawn) [Cpd 208, (5S)-3-(adamantan-2-ylcarbamoyl)-1-cyclohexyl-4,5,6,7-tetrahydro-1H-indazole-5-carboxylic acid ethyl ester] |  | 660 | 14 | 8.6 |  | 
7 | CCOC(=O)C1CCc2c(C(=O)NC34CC5CC(CC3C5)C4)nn(Cc3ccccc3)c2C1 (stereo not shown) [compound 157] |  | 30 | 2 | 1.5 |  | 
8 | CCOC(=O)C1CCc2c(C(=O)NCC34CC5CC(CC(C5)C3)C4)nn(Cc3ccccc3)c2C1 (stereo not shown) [compound 156] |  | 97 | 2 | 35 |  | 
9 | CC12CCC(C1)C(C)(C)C2NC(=O)c1nn(-c2ccccc2)c2c1CCCC2 (stereo not shown) [compound 1] |  | 377 | 13.5 |  | 15 | 
10 | CCOC(=O)C1CCc2c(c(C(=O)NC3C4(C)CCC(C4)C3(C)C)nn2Cc2ccccc2)C1 (stereo not shown) [compound 149] |  | 67 | 8 | 7.9 |  | 
11 | O=C(NC1C2CC3CC(C2)CC1C3)c1nn(C2CCCCC2)c2c1CCCC2Cl (stereo not shown) [compound 62] |  | 280 | 5 |  | 0.57 | 
12 | CC1CCCc2c(C(=O)NC3C4(C)CCC(C4)C3(C)C)nn(-c3ccc(F)cc3)c21 (stereo not shown) [compound 13] |  | 108 | 6.5 |  | 4.1 | 
13 | CC(C)OC(=O)C1CCc2c(c(C(=O)NC3C4CC5CC(C4)CC3C5)nn2C2CCCCC2)C1 (stereo not shown) [compound 232] |  | 2400 | 30 | 360 |  | 
14 | CC(NS(=O)(=O)C=Cc1nn(-c2ccc(F)cc2)c2c1CCCC2CCc1ccccc1)C1CCCCC1 (stereo not shown) [Cpd 259, 2-[1-(4-fluoro-phenyl)-7-phenethyl-4,5,6,7-tetrahydro-1H-indazol-3-yl]-ethenesulfonic acid (1-cyclohexyl-ethyl)-amide] |  |  |  |  |  | 610
15 | O=C(NC1C2CC3CC(C2)CC1C3)c1nn(CC2CCCCC2)c2c1CCCC2 (stereo not shown) [compound 122] |  | 4 | 1.5 |  | 37 | 
16 | COc1cccc(C2CCCc3c(C(=O)N[C@H](C)c4ccccc4)nn(-c4ccc(Cl)cc4Cl)c32)c1 (stereo partly shown) [compound 312] | 36 |  |  |  |  | 
17 | COC(=O)[C@H]1CCc2c(c(C(=O)NC3C4CC5CC(C4)CC3C5)nn2C2CCCCC2)C1 (stereo partly shown) [compound 218] |  | 400 | 3 | 6 |  | 
18 | O=C(NC1C2CC3CC(C2)CC1C3)c1nn(C2CCCCC2)c2c1CC(NC(=O)C(F)(F)F)CC2 (stereo not shown) [compound 87] |  | 855 | 26.6 |  | 250 | 
19 | O=C(NC12CC3CC(CC(C3)C1)C2)c1nn(C2CCCCC2)c2c1CCCC2 [compound 44] |  | 79 | 2.4 |  | 29 | 

Row | SMILES | EC50 [1] [nM] | IC50 [2] [nM] | IC50 [3] [nM] | EC50 [4, 5] [nM] | EC50 [4, 6] [nM] | EC50 ([1]; SK-N-MC cells, CRE β-gal, human CB1 receptor, forskolin, inverse agonist, read-out: CB1 Receptor Functional Inverse Agonist EC50) [nM]
20 | CCOC(=O)[C@@H]1CCCC[C@@H]1NC(=O)c1nn(C2CCCCC2)c2c1CCCC2 [compound 36] |  | 105 | 12.8 |  | 5 | 
21 | O=C(NN1CCCCCC1)c1nn(C2CCCCC2)c2c1CCCC2 [compound 37] |  | 69.3 | 112 |  | 10 | 
22 | CC(NC(=O)c1nn(C2CCCCC2)c2c1CCCC2)C12CC3CC(CC(C3)C1)C2 (stereo not shown) [compound 26] |  | 723 | 15 |  | 11 | 
23 | COC(=O)C(Cc1ccc(O)cc1)NC(=O)c1nn(Cc2ccccc2)c2c1CCCC2 (stereo not shown) [compound 75] |  | 23.7 | 0.7 |  | 0.1 | 
24 | CC(NC(=O)c1nn(-c2ccc(F)cc2)c2c1CCCC2c1ccccc1)C12CC3CC(CC(C3)C1)C2 (stereo not shown) [compound 146] | 1520 |  |  |  |  | 
25 | CCOC(=O)C1CCc2c(C(=O)N[C@H](C)C3CCCCC3)nn(C3CCCCC3)c2C1 (stereo partly shown) [compound 284] |  | 350 | 45 | 360 |  | 
26 | CC(NC(=O)c1nn(C2CCCCC2)c2c1CCCC2)C1CCCCC1 (stereo not shown) [compound 184] |  | 50 | 20 |  | 100 | 
27 | COc1cccc(C2CCCc3c(C(=O)N[C@H](CCl)c4ccccc4)nn(-c4ccc(Cl)cc4Cl)c32)c1 (stereo partly drawn) [Cpd 316, 1-(2,4-dichloro-phenyl)-7-(3-methoxy-phenyl)-4,5,6,7-tetrahydro-1H-indazole-3-carboxylic acid [(1S)-2-chloro-1-phenyl-ethyl]-amide] | 46 |  |  |  |  | 
28 | CCOC(=O)[C@@H]1C2CCC(C2)[C@@H]1NC(=O)c1nn(C2CCCCC2)c2c1CCCC2 (stereo partly shown) [compound 278] |  | 403 | 37.5 |  | 0.78 | 
29 | CCOC(=O)[C@@H]1CCc2c(c(C(=O)NC3C4CC5CC(C4)CC3C5)nn2C2CCCCC2)C1 (stereo partly drawn) [Cpd 209, (5R)-3-(adamantan-2-ylcarbamoyl)-1-cyclohexyl-4,5,6,7-tetrahydro-1H-indazole-5-carboxylic acid ethyl ester] |  | 260 | 200 | 74 |  | 
30 | CC(NC(=O)c1nn(CC2CCCCC2)c2c1CCCC2)C12CC3CC(CC(C3)C1)C2 (stereo not shown) [compound 123] |  | 7.5 | 4.6 |  | 7.5 | 
31 | CCOC(=O)[C@H]1C2CCC(C2)[C@H]1NC(=O)c1nn(-c2ccc(F)cc2)c2c1CCCC2CCc1ccccc1 (stereo partly shown) [compound 154] |  | 60 | 370 |  | 9 | 
32 | CC12CCC(C1)C(C)(C)C2NC(=O)c1nn(-c2ccc(F)cc2)c2c1CCCC2 (stereo not shown) [compound 10] |  | 45 | 6 |  | 1.9 | 
33 | CC12CCC(C1)C(C)(C)[C@H]2NC(=O)c1nn(C2CCCCC2)c2c1CCCC2 (stereo partly shown) [compound 207] |  | 82.4 | 1.6 |  | 10 | 
34 | O=C(NC1C2CCC(C2)C1CO)c1nn(C2CCCCC2)c2c1CCCC2 (stereo not shown) [compound 40] |  | 1440 | 215 |  | 31 | 
35 | O=C(NN1CCCCCC1)c1nn(-c2ccc(F)cc2)c2c1CCCC2 [compound 35] |  | 700 | 94 |  | 35 | 
36 | CCOC(=O)[C@@H]1CCc2c(c(C(=O)NC(C)C34CC5CC(CC(C5)C3)C4)nn2C2CCCCC2)C1 (stereo partly shown) [compound 214] |  | 1230 | 15.3 | 120 |  | 
37 | CC12CCC(C1)C(C)(C)[C@@H]2NC(=O)c1nn(Cc2ccccc2)c2c1CCCC2 (stereo partly shown) [compound 217] |  | 2.6 | 0.1 |  | 0.052 | 
38 | CCOC(=O)[C@@H]1CCc2c(c(C(=O)NC3C4CC5CC(C4)CC3C5)nn2Cc2ccccc2)C1 (stereo partly shown) [compound 211] |  | 5 | 0.7 | 16 |  | 
